According to patent publication US7741493B2, “Heterocyclic compounds as P2X7 ion channel blockers” (Aventis Pharmaceuticals Inc., priority 2003, dated 2010):
Structures can show the parent of a compound that is named as a salt.

How the values were obtained:
P2X7 [1] = biological target: T1, P2X7 (Homo sapiens, UniProt Q99572); assay: YO-PRO-1 dye uptake assay in U373 cells stably expressing P2X7; type: cell-based; design: The complete open reading frame of human P2X7 was amplified from Incyte clone 148057; expressed in transfected cells; conditions: dye uptake through P2X7, U373 cells, 300 μM BzATP, 5 μM YO-PRO-1, test compounds 30 nM to 3 μM; read-out: IC50
T1 sequence (Q99572 1-595): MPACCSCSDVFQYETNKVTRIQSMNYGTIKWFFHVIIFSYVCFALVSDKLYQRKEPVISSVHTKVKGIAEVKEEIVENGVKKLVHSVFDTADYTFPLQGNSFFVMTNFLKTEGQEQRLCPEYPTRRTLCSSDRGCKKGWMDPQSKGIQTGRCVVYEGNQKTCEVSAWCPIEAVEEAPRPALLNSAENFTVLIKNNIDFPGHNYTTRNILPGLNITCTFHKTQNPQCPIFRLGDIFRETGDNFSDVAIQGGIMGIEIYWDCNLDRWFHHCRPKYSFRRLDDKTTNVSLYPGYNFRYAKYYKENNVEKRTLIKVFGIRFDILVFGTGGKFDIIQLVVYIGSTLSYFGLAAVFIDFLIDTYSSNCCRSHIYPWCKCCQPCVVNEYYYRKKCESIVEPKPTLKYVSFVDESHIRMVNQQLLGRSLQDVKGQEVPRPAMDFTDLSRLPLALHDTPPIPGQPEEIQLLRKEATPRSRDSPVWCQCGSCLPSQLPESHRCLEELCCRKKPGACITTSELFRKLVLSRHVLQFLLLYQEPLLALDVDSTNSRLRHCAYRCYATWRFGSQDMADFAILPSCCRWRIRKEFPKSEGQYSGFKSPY
Outline: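 U373 cells stably expressing human P2X7 preincubated 20 min at 37° C. with compound (30 nM to 3 μM) in Mg/Ca-free HBSS. YO-PRO-1 (5 μM final) and BzATP (300 μM final) then added for 1.5 h at 37° C.; dye-uptake fluorescence compared with compound-free control.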

P2X7 [2] = biological target: T1, P2X7; assay: BzATP-induced IL-1β secretion from human monocytes/macrophages activated by beta amyloid peptide 1-42 (ELISA); type: cell-based; design: Monocytes were isolated from peripheral blood mononuclear cells (PBMCs); endogenous in cells; host or cells: primary monocytes isolated from peripheral blood mononuclear cells
Protocol: Cell isolation: Monocytes were isolated from peripheral blood mononuclear cells (PBMCs) as follows. Whole blood was layered directly onto Histopak 1077-1 columns (Sigma Biochemicals) and centrifuged at 800×g for 15 minutes. The PBMC band of cells was removed to a fresh 50 ml culture tube and diluted 1:1 with wash buffer (Phosphate buffered saline, pH 7.4 containing 2 mM EDTA and 5 mg/ml BSA) followed by centrifugation at 800×g for 5 minutes. Cells were then washed by sequential resuspension of the cell pellet in wash buffer and centrifugation at 600×g for 5 minutes. The wash process was repeated until the supernatant was clear of contaminating platelets (5 to 6 washes). Monocytes were then purified from the PBMCs by negative selection using a monocyte isolation kit (Miltenyi Biotec, Inc) that contains antibodies to non-monocytic cells, running the cells over a magnetic column to remove antibody-bound cells, and collecting the flow through volume of monocytes. Monocytes were washed once with wash buffer and seeded at 10E5 cells per well in 100 μl serum-free RPMI 1640 in 96-well plates and incubated for 1 hour at 37° C. in a 5% CO2/95% humidified tissue culture incubator. After 1 hour, the medium was replaced with 100 μl complete culture medium (RPMI 1640, 10% human serum-type AB (heat inactivated), 25 mM HEPES, 2 mM glutamine, 50 U/ml each of penicillin and streptomycin) and incubated overnight (16 hours). Dosing regimen: The next day, the culture medium was replaced with 100 μl fresh complete culture medium in the absence or presence of human beta amyloid 1-42 peptide (5 μM) and incubated at 37° C. in a 5% CO2/95% humidified tissue culture incubator for 5 hours. Medium was then removed and discarded. Each well was washed once with Hanks buffered saline (HBSS) containing 1 mM CaCl2 followed by the addition of 80 μl of HBSS/CaCl2. […] Medium was then removed to new 96-well plates for storage at −70° C. until the IL-1β content was quantitated by ELISA (from R&D Systems). The cells were washed once with HBSS/CaCl2 followed by lysing the cells with 100 μl ice cold lysis buffer (100 mM Tris, pH 7.6, 1% triton X-100, and 1 tablet per 30 ml Complete TM protease inhibitor from Roche Biochemicals, Inc). Cell lysates were stored at −70° C. until the IL-1β was quantitated by ELISA. The results thus obtained for percent inhibition of BzATP-induced IL-1β secretion using a few of the P2X-7 compounds of the present invention are summarized in Table 7.

[3] = system: Long Evans derived male rats; assay: carrageenan induced paw edema; type: in vivo, rat; conditions: 150 mg/kg, PO
Balb/cByJ mice = assay: monoclonal antibody (mAb) type II collagen induced arthritis; type: in vivo, mouse; conditions: 3 mg/kg×3, PO
Protocol: This Example illustrates the anti-inflammatory activity of the compounds of this invention using a model of Balb/c mice subjected to monoclonal antibody (mAb) type II collagen induced arthritis.
A compound of this invention is dissolved in vehicle of 2% Tween 80/0.9% NaCl, at doses of 50 or 30 and administered orally (50 mg/kg) or intraperitoneally at 30 mg/kg once daily for 3 consecutive days after monoclonal antibody of collagen was injected. Dosing volume is 20 ml/kg.
Groups of 5 Balb/cByJ mice strain, 6-8 weeks of age, are used for the induction of arthritis by monoclonal antibodies (mAbs) responding to type II collagen, plus lipopolysaccharide (LPS). The animals are administered intravenously with a combination of 4 different mAbs (D8, F10, DI-2G and A2) in total of 4 mg/mouse at day 0, and followed by intravenous 25 μg of LPS 72 hours later (day 3). From day 3, one hour after LPS administration, ML-659 at 50 mg/kg (PO) or 30 mg/kg (IP) and vehicle (2% Tween 80/0.9% NaCl, PO) as well as the positive control indomethacin, 3 mg/kg (PO) are administrated once daily for 3 consecutive days. A plethysmometer (Ugo Basile Cat # 7150) with water cell (12 mm diameter) is used for the measurement of increase in volume of the two hind paws at day 0, 5, 7, 10, 14, and 17. The percent inhibition of increase in volume is calculated by the following formula: Inhibition (%): [1−(Tn−To)/(Cn−Co)]×100 Where: Co (Cn): volume of day 0 (day n) in vehicle control To (Tn): volume of day 0 (day n) in test compound-treated group The reduction of both of two hind paws edema by more than 30% is considered significant.

Wistar derived male rats = assay: 2,4-dinitrobenzenesulfonic acid (DNBS) induced distal colitis; type: in vivo, rat; conditions: 30 mg/kg×7, oral administration
[4] = BzATP (300 μM)-induced IL-1β secretion, human monocytes primed with beta amyloid 1-42 (5 μM), read-out: IC50

| Structure (SMILES) | IC50 (P2X7 [1]) | also measured |
| --- | --- | --- |
| Fc1cccc(CNC2=N[C@@H](c3cccc(F)c3)[C@@H](c3cccc(F)c3)N2)c1 [[cis-4,5-bis-(3-Fluorophenyl)-4,5-dihydro-1H-imidazol-2-yl]-(3-fluorobenzyl)amine hydrochloride] | 42 nM | IC50 (P2X7 [2]): 1280 nM |
| CC(=O)Oc1ccccc1C(=O)O [aspirin] |  | inhibition of inflammation (hind paw edema) [3]: 38% |
| c1ccc(CCOCC2=N[C@@H](c3ccccc3)[C@@H](c3ccccc3)N2)cc1 [cis-4,5-diphenyl-2-[(2-phenethyloxy)methyl]-4,5-dihydro-1H-imidazole] | 768 nM |  |
| c1ccc(CCNC2=N[C@@H](c3ccccc3)[C@@H](c3ccccc3)N2)cc1 [cis-4,5-diphenyl-2-[(2-phenyl)ethyl]amino-4,5-dihydro-1H-imidazole] | 113 nM |  |
| Fc1ccc(CNC2=N[C@@H](c3ccccc3)[C@@H](c3ccccc3)N2)cc1F [cis-4,5-diphenyl-2-[(3,4-difluorobenzyl)amino]-4,5-dihydro-1H-imidazole] | 65 nM |  |
| c1ccc(CNC2=N[C@@H](c3ccccc3)[C@@H](c3ccccc3)N2)cc1 [cis-4,5-diphenyl-2-benzylamino-4,5-dihydro-1H-imidazole] | 135 nM |  |
| c1ccc(COCC2=N[C@@H](c3ccccc3)[C@@H](c3ccccc3)N2)cc1 [cis-4,5-diphenyl-2-benzyloxymethyl-4,5-dihydro-1H-imidazole] | 325 nM |  |
| c1ccc(CSC2=N[C@@H](c3ccccc3)[C@@H](c3ccccc3)N2)cc1 [cis-4,5-diphenyl-2-benzylthio-4,5-dihydro-1H-imidazole] | 214 nM |  |
| c1ccc(OCC2=N[C@@H](c3ccccc3)[C@@H](c3ccccc3)N2)cc1 [cis-4,5-diphenyl-2-phenoxymethyl-4,5-dihydro-1H-imidazole] | 612 nM |  |
| OC(C1=N[C@@H](c2ccccc2)[C@@H](c2ccccc2)N1)c1ccccc1 (stereo partly drawn) [cis-(4,5-diphenyl-4,5-dihydro-1H-imidazol-2-yl)-phenyl-methanol] | 241 nM |  |
| Fc1ccc(CNC2=NC(c3ccccc3)C(c3ccccc3)N2)cc1 (stereo not drawn) [hydrochloride] |  | IC50 (P2X7 [2]; [4]): 693 nM |
| COc1ccc2c(c1)c(CC(=O)O)c(C)n2C(=O)c1ccc(Cl)cc1 [indomethacin] |  | effect relative to the vehicle treated group (hind paws edema) (Balb/cByJ mice; day 5): 63%; effect relative to the vehicle treated group (hind paws edema) (Balb/cByJ mice; day 7): 70%; effect relative to the vehicle treated group (hind paws edema) (Balb/cByJ mice; day 10): 80%; effect relative to the vehicle treated group (hind paws edema) (Balb/cByJ mice; day 14): 88%; effect relative to the vehicle treated group (hind paws edema) (Balb/cByJ mice; day 17): 85% |
| O=C(O)c1cc(/N=N/c2ccc(S(=O)(=O)Nc3ccccn3)cc2)ccc1O [sulfasalazine] |  | inhibition of the inflammation (Wistar derived male rats): 37% |
| CC(C)(CC1=NC(c2ccccc2)C(c2ccccc2)N1)c1ccccc1 (stereo not drawn) [trifluoroacetate] |  | IC50 (P2X7 [2]; [4]): 178 nM |
| C[C@@H](C1=N[C@@H](c2ccccc2)[C@@H](c2ccccc2)N1)c1ccccc1 [trifluoroacetate] | 108 nM |  |
| C[C@H](C1=N[C@@H](c2ccccc2)[C@@H](c2ccccc2)N1)c1ccccc1 [trifluoroacetate] | 110 nM |  |
| Cc1ccc(CC2=N[C@@H](c3ccccc3)[C@@H](c3ccccc3)N2)cc1F [trifluoroacetate] | 178 nM |  |
| Cc1ccc(F)c(CC2=N[C@@H](c3ccccc3)[C@@H](c3ccccc3)N2)c1F [trifluoroacetate] | 594 nM |  |
| Cc1ccc(F)cc1CC1=N[C@@H](c2ccccc2)[C@@H](c2ccccc2)N1 [trifluoroacetate] | 319 nM |  |
| Fc1c(Cl)cccc1CC1=N[C@@H](c2ccccc2)[C@@H](c2ccccc2)N1 [trifluoroacetate] | 142 nM |  |
| Fc1ccc(CC2=N[C@@H](c3ccccc3)[C@@H](c3ccccc3)N2)c(Cl)c1 [trifluoroacetate] | 120 nM |  |
| Fc1ccc(CC2=N[C@@H](c3ccccc3)[C@@H](c3ccccc3)N2)cc1Cl [trifluoroacetate] | 13 nM | IC50 (P2X7 [2]; [4]): 157 nM |
| Fc1ccc(F)c(CC2=N[C@@H](c3ccccc3)[C@@H](c3ccccc3)N2)c1 [trifluoroacetate] | 142 nM |  |
| Fc1cccc(Cl)c1CC1=N[C@@H](c2ccccc2)[C@@H](c2ccccc2)N1 [trifluoroacetate] | 826 nM |  |
| Fc1cccc(F)c1CC1=N[C@@H](c2ccccc2)[C@@H](c2ccccc2)N1 [trifluoroacetate] | 966 nM |  |
| O=C(Nc1ccccc1)OC(C1=NC(c2ccccc2)C(c2ccccc2)N1)c1ccccc1 (stereo not drawn) [trifluoroacetate] | 625 nM |  |
| c1ccc([C@H]2NC(C3(c4ccccc4)CC3)=N[C@H]2c2ccccc2)cc1 [trifluoroacetate] | 334 nM |  |
